In publication PMC10301570 (Molecules, 2023):
Like-named read-outs stand apart in the source and are kept apart here.

How the values were obtained:
[1] = Stability in simulated intestinal fluid (SIF, pH 6.8); type: in vitro ADME; settings: 100 μg/mL, SIF pH 6.8, 37 °C, 0–180 min
Method: (§1) The stability of quercetin and t-res was tested at 100 μg/mL in simulated gastric (SGF, pH 1.2) and intestinal (SIF, pH 6.8) fluids (n = 3). The manufacturer’s protocol was followed to prepare biorelevant media with enzymes. Quercetin and t-res were exposed to SGF and SIF buffers with and without enzymes and incubated in a shaking water bath at 37 °C. 100 μL samples were collected at specific intervals (0–60 min for SGF and 0–180 min for SIF). At a concentration of 100 µg/mL samples were extracted using ACN containing I.S (1:2, v/v), vortexed for 5 min, and then centrifuged at 10,000 rpm for 5 min [52]. The supernatant of the samples was utilized for LC-MS/MS analysis. The % remaining of quercetin and t-res was calculated to determine the stability using Equation (1). (1) % Drug remaining=Concentration of drug at time t/Concentration of drug at time 0×100

[2] = Metabolic stability in rat liver microsomes (RLM); settings: RLM 0.5 mg/mL, 100 µg/mL, 1 mM NADPH, up to 60 min
Method: (§2) The 0.8 mL reaction mixture was prepared using RLM at 0.5 mg/mL, 40 mM MgCl2, in 50 mM Tris-HCl buffer (pH 7.4). 100 µg/mL of quercetin and t-res was added to the reaction mixture and preincubated in a shaking water bath at 37 °C and 1 mM NADPH was added to the reaction milieu to initiate the reactions. Samples were collected at predetermined time points up to 60 min and processed for LC-MS/MS analysis [54].

[3] = set-up: method as in Dinesh Kumar V et al. (2014) [48]; settings: rat plasma, oral, 25 mg/kg, ref Dinesh Kumar V et al. (2014) [48], cited from earlier work
[4] = Stability in simulated gastric fluid (SGF, pH 1.2); type: in vitro ADME; settings: 100 μg/mL, SGF pH 1.2, 37 °C, 0–60 min
Method: as §1

[5] = Plasma stability; type: in vitro ADME; settings: rat, 37 °C
Method: The preincubation of rat plasma was done for 5 min at 37 °C. After pre-incubation, quercetin and t-res were added to plasma at a concentration of 100 µg/mL, and reaction tubes were incubated for 3 h in a shaking water bath at 37 °C. Aliquots were collected at predetermined timepoints of 0, 5, 15, 30, 45, 60, 90, 120, and 180 min. Plasma samples were processed immediately using the extraction method mentioned in Section 4.6. The % remaining of the drug at various time intervals relative to the initial time point (time 0) was used to calculate the plasma stability.

[6] = In-vivo pharmacokinetic study in rats after oral administration of EECQ extract; settings: serum, oral 400 mg/Kg EECQ, mean ± SD, n = 6; for AUC(0-inf): male, SD, po; for AUC(0-inf) / AUC(0-t) / Cmax / Tmax / half-life: rat
Method: Liquid-liquid extraction was employed for processing samples of quercetin and t-res in rat serum. CS/QC samples were prepared using 10 μL of sample and 90 μL of control serum or 100 μL serum (in vivo) samples were treated with 100 μL of 1 mg/mL β-glucuronidase enzyme in 100 mM ammonium acetate buffer (pH 5) and incubated for 2 h at 37 °C. The reaction mixtures were precipitated with 200 μL of 0.1% FA in methanol-containing IS (FFA). Samples were vortexed for 5 min at 2000 rpm, and then ethyl acetate was added, the sample was vortexed and centrifuged at 10,000 rpm for 10 min. The organic layer was then collected and dried at 37 °C using a TurboVap and nitrogen stream. The dried residues were reconstituted with mobile phase and injected into LC-MS/MS for analysis.
The pharmacokinetic study of quercetin and t-res was performed by an oral administration of EECQ extract (400 mg/kg) in male SD rats (n = 6). The EECQ oral dose was selected based on our previous publication. […] Blood samples were collected from the retro-orbital plexus of rats at predetermined time points 0.25, 0.5, 1, 2, 4, 8, 12, 24, and 48 h after oral administration. Serum was obtained by centrifuging the blood and samples were stored at −80 °C until analysis. Serum samples were processed using the LLE extraction mentioned in Section 4.6 and analyzed using the validated LC-MS/MS method. The non-compartment model was used to calculate the pharmacokinetic (PK) parameters for quercetin and t-res using WinNonlin 6.3 software (Pharsight Corporation, Saint Louis, MO, USA). The PK parameters were estimated, including Cmax, maximum plasma concentration; t1/2, half-life; Tmax, time to reach Cmax; CL/F, clearance and Vd/F, apparent volume of distribution. AUC0–t (area under the concentration curve from zero time point to the last time point) was determined with the trapezoidal rule up to the last measured plasma concentration, Clast. AUC0–∞ (AUC curve from zero time point to infinity) was determined by adding AUC0–t and Clast/Ke.

[7] = Stability in rat serum under storage conditions (autosampler, benchtop, long-term, freeze-thaw); type: in vitro ADME; settings: for Autosampler stability, accuracy / Autosampler stability, measured conc. / Benchtop stability, accuracy / Benchtop stability, measured conc. / Freeze-thaw stability, accuracy / Freeze-thaw stability, measured conc. / Long-term stability, accuracy / Long-term stability, measured conc.: rat serum, n = 6; for Autosampler stability, accuracy / Autosampler stability, measured conc.: 4 ± 2 °C, 24 h; for Benchtop stability, accuracy / Benchtop stability, measured conc.: 24 ± 4 °C, 8 h; for Freeze-thaw stability, accuracy / Freeze-thaw stability, measured conc. / Long-term stability, accuracy / Long-term stability, measured conc.: −70 ± 10 °C; for Freeze-thaw stability, accuracy / Freeze-thaw stability, measured conc.: 3 cycles; for Long-term stability, accuracy / Long-term stability, measured conc.: 30 days
Method: Stability studies were performed using three different QC levels including LQC, MQC, and HQC with six replicates. The extracted serum samples were analyzed using different storage conditions including autosampler (4 ± 2 °C for 24 h), bench top stability (24 ± 4 °C for 8 h), and long-term stability (−70 ± 10 °C for 30 days). Freeze-thaw stability was evaluated after subjecting the samples to three cycles of freezing (−70 ± 10 °C for 12 h) and thawing. Stability samples were quantified against fresh calibration and QC samples. The accuracy and precision of stability samples should meet the acceptance criterion of ±15%.

[8] = rat, microsomes, 1 h
Method: as §2

[9] = set-up: method as in Meng-xiang Su et al. (2011) [47]; settings: rat plasma, oral, 0.6 mg/kg; ref Meng-xiang Su et al. (2011) [47]; cited from earlier work
[10] = nominal conc. 203 ng/mL (204 for trans-resveratrol)

| SMILES | remaining at 3 h, 100 µg/mL [5] | AUC(0-inf) ([6]; 400 mg/kg) | AUC(0-t) ([6]; male SD rats) | Cmax ([6]; male SD rats) | Tmax ([6]; male SD rats) | half-life ([6]; male SD rats) | Autosampler stability, accuracy ([7]; nominal conc. 30 ng/mL) | Autosampler stability, measured conc. ([7]; nominal conc. 30 ng/mL) | Autosampler stability, accuracy [7, 10] | Autosampler stability, measured conc. [7, 10] | Autosampler stability, accuracy ([7]; nominal conc. 375 ng/mL) | Autosampler stability, measured conc. ([7]; nominal conc. 375 ng/mL) | Benchtop stability, accuracy ([7]; nominal conc. 30 ng/mL) | Benchtop stability, measured conc. ([7]; nominal conc. 30 ng/mL) | Benchtop stability, accuracy [7, 10] | Benchtop stability, measured conc. [7, 10] | Benchtop stability, accuracy ([7]; nominal conc. 375 ng/mL) | Benchtop stability, measured conc. ([7]; nominal conc. 375 ng/mL) | Freeze-thaw stability, accuracy ([7]; nominal conc. 30 ng/mL) | Freeze-thaw stability, accuracy [7, 10] | also measured |
| --- | --- | --- | --- | --- | --- | --- | --- | --- | --- | --- | --- | --- | --- | --- | --- | --- | --- | --- | --- | --- | --- |
| O=c1c(O)c(-c2ccc(O)c(O)c2)oc2cc(O)cc(O)c12 [Quercetin] | 83.4% | 471 ± 51.5 ng·h/mL | 447 ± 47 ng·h/mL | 57.6 ± 14.3 ng/mL | 1.17 ± 0.41 h | 4.91 ± 0.69 h | 92.56% | 27.77 ± 1.50 ng/mL | 89.32% | 181.31 ± 8.65 ng/mL | 99.44% | 372.92 ± 2.21 ng/mL | 90.29% | 27.09 ± 1.67 ng/mL | 90.96% | 184.64 ± 7.16 ng/mL | 98.96% | 371.12 ± 2.43 ng/mL | 98.12% | 93.68% | Stability in SIF [1]: stable; % remaining in RLM [2]: 53.78; AUC(0–t) [3]: 3283.75 ng·h/mL; Tmax [3]: 4.00; plasma half-life [3]: 4.96 h; Cmax ([3]; in ng/mL): 369.20; Stability in SGF [4]: Moderate instability; AUC0–∞ ([6]; male SD rats, 400 mg/kg): 474.23 ± 51.49 ng·h/mL; Stability in rat serum at variable storage conditions ([7]; autosampler, benchtop, freeze-thaw, long-term): stable; Freeze-thaw stability, measured conc. ([7]; nominal conc. 30 ng/mL): 29.44 ± 2.73 ng/mL; Freeze-thaw stability, measured conc. [7, 10]: 190.17 ± 8.97 ng/mL; Freeze-thaw stability, accuracy ([7]; nominal conc. 375 ng/mL): 98.63%; Freeze-thaw stability, measured conc. ([7]; nominal conc. 375 ng/mL): 369.86 ± 4.43 ng/mL; Long-term stability, accuracy ([7]; nominal conc. 30 ng/mL): 100.22%; Long-term stability, measured conc. ([7]; nominal conc. 30 ng/mL): 30.07 ± 2.06 ng/mL; Long-term stability, accuracy [7, 10]: 98.38%; Long-term stability, measured conc. [7, 10]: 199.71 ± 8.70 ng/mL; Long-term stability, accuracy ([7]; nominal conc. 375 ng/mL): 99.48%; Long-term stability, measured conc. ([7]; nominal conc. 375 ng/mL): 373.05 ± 10.65 ng/mL |
| Oc1ccc(/C=C/c2cc(O)cc(O)c2)cc1 [trans-Resveratrol, trans-resveratrol] | 84.4% | 157 ± 21.1 ng·h/mL | 145 ± 20.8 ng·h/mL | 56.4 ± 13.1 ng/mL | 0.58 ± 0.2 h | 1.51 ± 0.4 h | 94.53% | 28.36 ± 2.19 ng/mL | 93.73% | 190.28 ± 13.20 ng/mL | 99.51% | 373.15 ± 5.84 ng/mL | 95.08% | 28.52 ± 3.05 ng/mL | 93.36% | 189.53 ± 8.81 ng/mL | 98.17% | 368.13 ± 12.29 ng/mL | 91.32% | 93.32% | Phase I metabolism in RLM [8]: no phase I metabolism was observed; Phase I metabolism in RLM ([8]; 100 µg/mL, pH 7.4): no phase-1 metabolism observed; AUC(0–t) [9]: 2835 ± 1655 ng·min/mL; Cmax [9]: 23 ± 8 ng/mL; half-life [9]: 0.6 ± 0.1 h; Freeze-thaw stability, measured conc. [7, 10]: 189.43 ± 17.82 ng/mL; Freeze-thaw stability, accuracy ([7]; nominal conc. 375 ng/mL): 98.11%; Freeze-thaw stability, measured conc. ([7]; nominal conc. 375 ng/mL): 367.92 ± 11.94 ng/mL; Long-term stability, accuracy ([7]; nominal conc. 30 ng/mL): 101.68%; Long-term stability, measured conc. ([7]; nominal conc. 30 ng/mL): 30.50 ± 2.53 ng/mL; Long-term stability, accuracy [7, 10]: 93.14%; Long-term stability, measured conc. [7, 10]: 189.08 ± 14.18 ng/mL; Long-term stability, accuracy ([7]; nominal conc. 375 ng/mL): 97.67%; Long-term stability, measured conc. ([7]; nominal conc. 375 ng/mL): 366.25 ± 11.38 ng/mL |
